# Measurements as given in patent US20110053859A1, “METHODS TO REDUCE THE EFFECTS OF SLEEP DEPRIVATION” (The U. S. Government Respresented by the Department of …, priority 2007, published 2011).
# “Also recorded” adds a separate entry of the source.
# What was measured:
# [1] = system: alert non sleep deprived monkeys; assay: Multi-image delayed match to sample (DMS) task in alert non-sleep-deprived monkeys; assay type: in vivo, rhesus monkeys (Macaca mulatta); details: for DMS performance vs saline control: IV 10.0 μg/kg, all 8 monkeys
# From the text: (§1) Subjects: All procedures were reviewed and approved by the Institutional Animal Care and Use Committee of Wake Forest University, and performed in accordance with established practices as described in the National Institutes of Health Guide for Care and Use of Laboratory Animals. Eight adult male rhesus monkeys (Macaca mulatta) weighing (8.0-11.0 kg) were utilized in this study. They were individually housed in stainless steel cages in temperature and humidity controlled colony rooms with lighting maintained on a 0600:1800 on:off schedule and fed a diet of monkey chow supplemented by fresh fruit to maintain daily monitored body weight. Fluid intake was restricted in time and amount such that a prescribed volume of an animal's normal daily fluid intake (80 ml/kg) was received either during the behavioral testing session, or within 2 hours of being returned to the home cage.
# (§2) Behavioral Testing: Each monkey was exposed to 6 different testing conditions (Normal Vehicle, Alert orexin-A (IV and nasal), Sleep Deprivation, Sleep Deprivation+orexin-A (IV or nasal) which required 11-14 test sessions for each of the 8 monkeys. Animals were placed in a primate chair 1.5 meters in front of an LCD-front-projection screen for daily testing on a multi-image visual delayed match to sample (DMS) task (Porrino 2005) and performed 150-300 trials per session. Animals were trained to move a cursor tracked by a fluorescent marker attached to the back of the monkey's hand into the images by positioning the hand within a two dimensional coordinate system on the chair counter. Stimuli consisted of clip art images projected as 25 cm squares within a 3×3 position matrix onto a 1.0 meter×1.0 meter display. Responses to appropriate stimuli were rewarded with diluted fruit juice delivered via a sipper tube placed in front of the mouth. All animals were trained to a stable baseline on the DMS task in which delay varied randomly from (range 1-60 sec to 1-90 sec across animals) on a given trial, and the number of non-match stimuli (images) varied randomly from 2 to 8 in the Match phase of the task (Porrino 2005). As shown previously performance accuracy varied directly with duration of delay and number of nonmatch images (#images) presented in the Match phase (Hampson 2004, Porrino 2005). Each stimulus image (sample or nonmatch) was used on only one trial during a daily session and the sets of images were routinely changed every two weeks to maintain the trial unique feature of each session. Performance was monitored daily on the DMS task and there was no testing on weekends.
# Drug Administration: orexin-A (hypocretin-1) was mixed in saline for IV injections and in sterile water for nasal application. […]
# [2] = system: sleep deprived monkeys; assay: PET (FDG) local cerebral glucose metabolism (CMRglc) during DMS task in sleep deprived monkeys; assay type: in vivo, rhesus monkeys (Macaca mulatta)
# From the text: Measurement of Local Rates of Cerebral Glucose Metabolism: Measurement of rates of cerebral glucose metabolism (CMRglc) were made in 8 monkeys in four different conditions: normal alert DMS task vehicle; DMS task-Sleep Deprivation vehicle; DMS task-Sleep Deprivation+orexin A (IV or nasal). All animals (n=8) were acclimated to the PET scan sessions to the extent that performance was not influenced by the injection or blood collection procedures. On the day of the scan the monkeys were placed in primate chairs and received a 30 sec injection of 3-5 mCi of [^18]-2-deoxy-2-fluoro-D-glucose (FDG). The DMS task was initiated 5-10 min later and was performed for a total of 40 minutes (80-100) trials while the FDG was incorporated and taken up by cells during performance in the DMS task. After 40 min animals were then anesthetized with ketamine (15 mg/kg, iv) and transported to the PET scanner. Following scan acquisition, monkeys were transported back to their home cages and continuously monitored until fully recovered. Effects of anesthesia and other factors associated with the PET scanning procedures were previously assessed and shown to not influence measures of isotope uptake.
# To calculate glucose uptake tracer concentrations were measured in blood samples using an automated gamma well counter from three blood samples collected from the femoral vein at 10 minutes prior to tracer injection and 8 and 42 minutes post-injection. A population-averaged FDG blood curve (calculated for monkey) was scaled to the measured blood curve for the time period from injection to the end of the PET scan (Sokoloff 1977). Data were transformed to CMRglc based on the operational equation (Phelps 1979, Kennedy 1978). Rate constants (k1, k2, and k3) and lumped constant as determined in monkey by Kennedy et. al. 1978, along with a k4 value used in human studies (Phelps 1979). PET scans were performed with a General Electric (GE) Advance NXi PET scanner with a resolution of 4 mm and consisted of a five minute transmission scan acquired in 2D mode, followed by a ten minute emission scan acquired in 3D mode. The image reconstruction of the 3D data used the 3D-reprojection method with full quantitative corrections and smoothed using a 4 mm Gaussian filter transaxially and then segmented. Data were corrected for attenuation and reconstructed into 128 by 128 matrices using a Hanning filter with a 4mm cutoff transaxially and a ramp filter with an 8.5 mm cutoff axially.
# PET data were analyzed with Statistical Parametric Mapping (SPM99) software (http://www.fil.ion.ucl.ac.uk/spm/) implemented in MATLAB (MathWorks, Natick, Mass.). Reconstructed images for each scan from each of the 8 monkeys were co-registered to corresponding structural MR images obtained on a 1.5-T MR scanner (GE Medical Systems, Milwaukee, Wis.) using automated image registration (Black 2001) and then transformed spatially into a standard space with an FDG template for rhesus monkeys constructed in our laboratory based on procedures of Black and colleagues (Paxinos 2003). Resultant images were smoothed using a 2 mm isotropic Gaussian kernel with a voxel size of 1×1×1 mm. Scans were normalized for differences in global activity by proportional scaling. Effects at each voxel were estimated according to the general linear model using the multi-subject conditions and covariates option in SPM. Statistical maps were created for comparisons of the […] different experimental conditions: Normal Alert Vehicle vs. Normal Alert orexin-A (IV or nasal); Sleep Deprivation vs. Normal Alert Vehicle; Sleep Deprivation vs. Sleep Deprivation+orexin-A (IV or nasal) and Sleep Deprivation+orexin-A IV vs. Sleep Deprivation+orexin-A nasal. Exploratory analyses used a minimum voxel height (magnitude) threshold of p<0.01 and a minimum cluster size of 50 voxels. […]
# [3] = system: sleep deprived (30-36 hrs) rhesus monkeys; assay: Multi-image DMS task after 30-36 hrs of sleep deprivation; assay type: in vivo, rhesus monkeys (Macaca mulatta)
# From the text: as §1, §2
# Sleep Deprivation Procedure: Sleep deprivation consisted of 30-36 hours of continuous sleep prevention supervised by laboratory personnel as previously verified using EEG recordings and sleep architecture to be a valid method of depriving animals of slow wave and REM sleep (Porrino 2005). Animals were maintained in a cage separate from their home cage in a continuously lighted room and kept awake with videos, music, occasional treats, gentle cage shaking, and interaction with technicians until their usual daily testing time. Animals were allowed 10 days between sleep deprivation episodes and were allowed to sleep after testing on each day following the 30-36 hr sleep deprivation episode. There were no residual effects of sleep deprivation on testing 24 hrs after the sleep deprivation procedure and animals returned to there normal sleep patterns on the next night following the sleep deprivation procedure.
# Drug Administration: orexin-A (hypocretin-1) was mixed in saline for IV injections and in sterile water for nasal application. For IV administration orexin-A, (#003-30, Phoenix Pharmaceuticals, Mountain View, Calif.) was dissolved in physiological saline as a stock solution of 200 μg/ml which was then diluted in saline to inject 3 different doses of 2.5, 5.0 and 10.0 μg/kg via an indwelling catheter placed in either the femoral or jugular vein using a glass syringe. […]
# [4] = system: drowsy monkeys; assay: DMS task in drowsy monkeys tested at the end of their normal day (4 PM); assay type: in vivo; details: for DMS performance at normal testing time: normal testing conditions (alert), nasal; for DMS performance impairment (high load and extended delay trials) in drowsy condition: tested at 4 PM, nasal spray 1.0 μg
# Experimental: Monkeys were tested at the end of their normal day 12 hr day at 4 PM, approximately 6-8 hours later than their normal testing period, in what can be considered a “drowsy” condition just prior to the onset of their dark cycle at 6 PM (Price 2003, Thomas 2000). At this time animals were impaired in performance relative to their normal testing times (high cognitive load: F(1.72)=8.49. p<0.001; extended delays-very high cognitive load: F(1.72)=5.84, p<0.01) during the day. […] F refers to an analysis of variance and the numbers in parentheses are the degrees of freedom, essentially the number of subjects and conditions (−1). The F value is the an indication of the effect size as measured by the analysis of variance, which is translated into a probability (p) value. This is a standard test for significance. […] Performance was decreased in animals administered nasal sprays of saline at this time of testing. Nasal orexin-A administered at 4 PM improved performance back to normal levels.
# [5] = nasal vs IV in the same monkeys
substance,measurement,setting,value
"orexin-A: 33 residue neuropeptide hypocretin-1, residues 34-66 of human prepro-orexin; bought from Phoenix Pharmaceuticals (#003-30) (QPLPDCCRQKTCSCRLYELLHGAGNHAAGILTL; Orexin-A; UniProt O43612 34-66, looked up)",DMS performance vs saline control,[1],slight but significant performance impairment
same,DMS performance vs saline control,[1]; listed as Orexin-A,significant reduction
same,"DMS performance, dose relation","[1]; IV 2.5, 5.0 and 10.0 μg/kg",dose-related trend toward reduced performance
same,DMS performance in normal alert sessions,[1]; nasal spray 1.0 μg,little or no effect on DMS performance; also recorded: no significant effects
same,Local CMRglc in DPFC vs sleep deprivation vehicle,[2]; IV 10.0 μg/kg,significant increases
same,Local CMRglc in DStr vs sleep deprivation vehicle,[2]; IV 10.0 μg/kg,significant increases
same,Local CMRglc in MTL vs sleep deprivation vehicle,[2]; IV 10.0 μg/kg,significant decrease
same,Local CMRglc in Thal vs sleep deprivation vehicle,[2]; IV 10.0 μg/kg,significant increases
same,Local CMRglc in DPFC vs sleep deprivation vehicle,[2]; nasal spray mist 1.0 μg,significantly elevated bilaterally
same,Local CMRglc in MTL vs sleep deprivation vehicle,[2]; nasal spray mist 1.0 μg,significant decreases
same,"Change of CMRglc in DPFC, nasal vs IV",[2]; [5],greater increases in CMRglc bilaterally
same,"Change of CMRglc in DStr, nasal vs IV",[2]; [5],greater increases in CMRglc bilaterally
same,"Change of CMRglc in MTL, nasal vs IV",[2]; [5],decreased CMRglc
same,"Change of CMRglc in Thal, nasal vs IV",[2]; [5],greater increases in CMRglc bilaterally
same,Monkeys that failed to show significant improvement on high load trials,[3]; IV 10.0 μg/kg,one of 8
same,DMS performance on high cognitive load trials vs sleep deprived sessions,[3]; IV 5.0 and 10.0 μg/kg,significantly improved relative to sleep deprived sessions
same,DMS performance on low cognitive load trials vs alert condition,[3]; IV 5.0 and 10.0 μg/kg,performed with the same efficiency as in the alert condition
same,DMS performance vs alert non-sleep deprived levels,[3]; IV 5.0 and 10.0 μg/kg,neither dose restored performance to alert non-sleep deprived levels
same,DMS performance vs sleep deprived saline sessions,[3]; IV 5.0 and 10.0 μg/kg,systematically increased performance; also recorded: partially reversed the detrimental effects on performance
same,"DMS performance on low cognitive load trials, nasal vs IV",[3]; nasal 1.0 μg vs IV 10.0 μg/kg,no difference between IV and nasal orexin-A
same,"DMS performance overall and on high cognitive load trials, nasal vs IV",[3]; nasal 1.0 μg vs IV 10.0 μg/kg,significantly more effective
same,Overall DMS performance vs sleep deprivation saline,"[3]; nasal 1.0 μg, overall, low and high load trials",reversed the detrimental effects of 30-36 hr sleep deprivation
same,DMS performance on high cognitive load trials,[3]; nasal spray 1.0 μg,elevated performance above normal alert levels
same,DMS performance on low cognitive load trials,[3]; nasal spray 1.0 μg,returning performance to normal alert levels
same,DMS performance on extended delay trials,"[3]; nasal spray 1.0 μg, extended delays (90-120 sec)",significantly above extended delay trials in both control sleep deprived and normal alert sessions; also recorded: significantly improved
same,DMS performance at normal testing time,[4],no effect on performance
same,DMS performance at normal testing time,[4]; listed as hyocretin,no effect on cognitive performance
same,DMS performance impairment (high load and extended delay trials) in drowsy condition,[4],reversed completely
same,DMS performance impairment (high load and extended delay trials) in drowsy condition,[4]; listed as hyocretin,reverses cognitive deficits
